The structures appear in SMILES notation. Where two headings read alike, the source gives them in different places. Where a SMILES comes first, the peptide text is derived from it. Bridges are numbered along the chain shown (N, C = ends). [ ]: non-standard residue; d: D form. 2Nal = N[C@@H](Cc1ccc2ccccc2c1)C(=O)O; Cit = NC(=O)NCCC[C@H](N)C(=O)O

What all share (assay type): cell-based
For one data set, the system named is HIV-1 (IIIB) strain. Nature of the data set: Anti-HIV activity: inhibition of MT-4 cell death by HIV infection (MTT method). Particulars: MT-4 CD4+ T cells infected by HIV-1 (IIIB), 37° C., 5 days, MTT; average of at least three measurements; read-out: EC50 (concentration where MT-4 cell death by HIV infection is inhibited by 50%). Here is the method:
(§1) HIV-1 (IIIB) strain obtained from MOLT/HIV-1 (IIIB) cell previously infected by HIV-1 was used. The polypeptide of the present invention was added to MT-4 CD4^+ T cells infected by HIV in various kinds of concentrations, and a number of living cells after culturing at 37° C. for 5 days was determined by using a 3′-(4,5-dimethylthiazol-2-yl)-2,5-diphenyltetrazolinium bromide (MTT) method. Anti-HIV activity is shown by a concentration (EC50 value), where MT-4 cell death by HIV infection is inhibited by 50%. Cytotoxicity of the peptide according to the present invention was shown by a 50% survival concentration (Test I: CC50 value) by culturing virus-uninfected MT-4 cells with the polypeptide according to the present invention in various concentrations, and determining a number of living cells by the MTT method. Moreover, a number of living cells of human peripheral blood mononuclear cells (monocyte) (PBMC) was determined by trypan blue dyeing method, and shown by a 50% survival concentration (Test II: CC50 value). Respective ratios of the CC50 value and the EC50 value were shown as a selective index (SI). Obtained values were summarized in Table 3 using the conventionally known polypeptides T134 and T140, and an anti-HIV compound: 3′-azido-2′,3′-dideoxythymidine (AZT) used as a medicine as a control anti-HIV agent.
On the technique in general: Tetrazolium assays rely on reduction of a dye to a coloured formazan, in cell work by metabolically active cells.

Data set [1] can be described thus: Cytotoxicity Test I: virus-uninfected MT-4 cells, MTT method. To be noted: virus-uninfected MT-4 cells, MTT method, read-out: CC50 (Test I), 50% survival concentration. Here is the method: as §1
Data set [2] relates to virus-uninfected MT-4 cells. Described as above. To be noted: selective index, MT-4 CC50 over anti-HIV EC50. Here is the method:
as §1

For `N=C(N)NCCC[C@H](NC(=O)[C@@H]1CSSC[C@H](NC(=O)[C@H](Cc2ccc3ccccc3c2)NC(=O)[C@H](CCCNC(=N)N)NC(=O)[C@@H](N)CCCNC(=N)N)C(=O)N[C@@H](Cc2ccc(O)cc2)C(=O)N[C@@H](CCCNC(N)=O)C(=O)N[C@@H](CCCCN)C(=O)N[C@H](CCCCN)C(=O)N2CCC[C@H]2C(=O)N[C@@H](Cc2ccc(O)cc2)C(=O)N[C@@H](CCCNC(=N)N)C(=O)N[C@@H](CCCNC(N)=O)C(=O)N1)C(=O)O` [TC14003, H-Arg-Arg-Nal-Cys-Tyr-Cit-Lys-DLys-Pro-Tyr-Arg-Cit-Cys-Arg-OH] (H-RR[2Nal]CY[Cit]K[dK]PYR[Cit]CR-OH; disulfide 4-13), in the data set on HIV-1 (IIIB) strain, the EC50 came to 2.8 nM.

As for `C[C@@H]1NC(=O)[C@@H]2CCCN2C(=O)[C@@H](CCCCN)NC(=O)[C@H](CCCCN)NC(=O)[C@H](CCCNC(=N)N)NC(=O)[C@H](Cc2ccc(O)cc2)NC(=O)[C@@H](NC(=O)[C@H](Cc2ccc3ccccc3c2)NC(=O)[C@H](CCCNC(=N)N)NC(=O)[C@@H](N)CCCNC(=N)N)CSSC[C@@H](C(=O)N[C@@H](CCCNC(=N)N)C(=O)O)NC(=O)[C@H](CCCNC(N)=O)NC(=O)[C@H](CCCNC(=N)N)NC1=O` [TA14009, H-Arg-Arg-Nal-Cys-Tyr-Arg-Lys-DLys-Pro-Ala-Arg-Cit-Cys-Arg-OH] (H-RR[2Nal]CYRK[dK]PAR[Cit]CR-OH; disulfide 4-13), in the data set on HIV-1 (IIIB) strain, the EC50 turned out to be 17 nM.

In the case of `N=C(N)NCCC[C@H](NC(=O)[C@@H]1CSSC[C@H](NC(=O)[C@H](Cc2ccc3ccccc3c2)NC(=O)[C@H](CCCNC(=N)N)NC(=O)[C@@H](N)CCCNC(=N)N)C(=O)N[C@@H](Cc2ccc(O)cc2)C(=O)N[C@@H](CCCNC(=N)N)C(=O)N[C@@H](CCCCN)C(=O)N[C@H](CCCCN)C(=O)N2CCC[C@H]2C(=O)N[C@@H](Cc2ccc(O)cc2)C(=O)N[C@@H](CCCNC(=N)N)C(=O)N[C@@H](CCCNC(N)=O)C(=O)N1)C(=O)O` [Compound T140, H-Arg-Arg-Nal-Cys-Tyr-Arg-Lys-DLys-Pro-Tyr-Arg-Cit-Cys-Arg-OH, reference compound] (H-RR[2Nal]CYRK[dK]PYR[Cit]CR-OH; disulfide 4-13), the EC50 in the data set with HIV-1 (IIIB) strain is 3.3 nM.

For the compound `C[C@@H]1NC(=O)[C@@H](CCCCN)NC(=O)[C@H](CCCCN)NC(=O)[C@H](CCCN=C(N)N)NC(=O)[C@H](Cc2ccc(O)cc2)NC(=O)[C@@H](NC(=O)[C@H](Cc2ccc3ccccc3c2)NC(=O)[C@H](CCCN=C(N)N)NC(=O)[C@@H](N)CCCN=C(N)N)CSSC[C@@H](C(=O)N[C@@H](CCCN=C(N)N)C(=O)O)NC(=O)[C@H](CCCNC(N)=O)NC(=O)[C@H](CCCN=C(N)N)NC(=O)[C@H](Cc2ccc(O)cc2)NC1=O` [TA14008, H-Arg-Arg-Nal-Cys-Tyr-Arg-Lys-DLys-Ala-Tyr-Arg-Cit-Cys-Arg-OH] (H-RR[2Nal]CYRK[dK]AYR[Cit]CR-OH; disulfide 4-13), in data set [1], the CC50 was > 80000 nM. In addition, in data set [2], the “SI: CC50 (Test I)/EC50” value is >4700.

As to `N=C(N)NCCC[C@H](NC(=O)[C@@H]1CSSC[C@H](NC(=O)[C@H](Cc2ccc3ccccc3c2)NC(=O)[C@H](CCCNC(=N)N)NC(=O)[C@@H](N)CCCNC(=N)N)C(=O)N[C@@H](Cc2ccc(O)cc2)C(=O)N[C@@H](CCCNC(=N)N)C(=O)N[C@@H](CCCNC(N)=O)C(=O)N[C@H](CCCCN)C(=O)N2CCC[C@H]2C(=O)N[C@@H](Cc2ccc(O)cc2)C(=O)N[C@@H](CCCNC(=N)N)C(=O)N[C@@H](CCCNC(N)=O)C(=O)N1)C(=O)O` [TC14004, H-Arg-Arg-Nal-Cys-Tyr-Arg-Cit-DLys-Pro-Tyr-Arg-Cit-Cys-Arg-OH] (H-RR[2Nal]CYR[Cit][dK]PYR[Cit]CR-OH; disulfide 4-13), in the data set on HIV-1 (IIIB) strain, the EC50 stood at 16 nM.

Turning to `C[C@@H]1NC(=O)[C@H](Cc2ccc(O)cc2)NC(=O)[C@@H](NC(=O)[C@H](Cc2ccc3ccccc3c2)NC(=O)[C@H](CCCNC(=N)N)NC(=O)[C@@H](N)CCCNC(=N)N)CSSC[C@@H](C(=O)N[C@@H](CCCNC(=N)N)C(=O)O)NC(=O)[C@H](CCCNC(N)=O)NC(=O)[C@H](CCCNC(=N)N)NC(=O)[C@H](Cc2ccc(O)cc2)NC(=O)[C@@H]2CCCN2C(=O)[C@@H](CCCCN)NC(=O)[C@H](CCCCN)NC1=O` [TA14005, H-Arg-Arg-Nal-Cys-Tyr-Ala-Lys-DLys-Pro-Tyr-Arg-Cit-Cys-Arg-OH] (H-RR[2Nal]CYAK[dK]PYR[Cit]CR-OH; disulfide 4-13), the EC50 with HIV-1 (IIIB) strain is 9.3 nM.

In the case of `N=C(N)NCCC[C@H](NC(=O)[C@@H]1CSSC[C@H](NC(=O)[C@H](Cc2ccc3ccccc3c2)NC(=O)[C@H](CCCNC(=N)N)NC(=O)[C@@H](N)CCCNC(=N)N)C(=O)N[C@@H](Cc2ccc(O)cc2)C(=O)N[C@@H](CCCNC(=N)N)C(=O)N[C@@H](CCCCN)C(=O)N[C@H](CCCCN)C(=O)N2CCC[C@H]2C(=O)N[C@@H](Cc2ccc(O)cc2)C(=O)N[C@@H](CCCNC(N)=O)C(=O)N[C@@H](CCCNC(N)=O)C(=O)N1)C(=O)O` [TC14006, H-Arg-Arg-Nal-Cys-Tyr-Arg-Lys-DLys-Pro-Tyr-Cit-Cit-Cys-Arg-OH] (H-RR[2Nal]CYRK[dK]PY[Cit][Cit]CR-OH; disulfide 4-13), the EC50 with HIV-1 (IIIB) strain was determined as 15 nM.

On to `C[C@@H]1NC(=O)[C@H](CCCNC(=N)N)NC(=O)[C@H](Cc2ccc(O)cc2)NC(=O)[C@@H](NC(=O)[C@H](Cc2ccc3ccccc3c2)NC(=O)[C@H](CCCNC(=N)N)NC(=O)[C@@H](N)CCCNC(=N)N)CSSC[C@@H](C(=O)N[C@@H](CCCNC(=N)N)C(=O)O)NC(=O)[C@H](CCCNC(N)=O)NC(=O)[C@H](CCCNC(=N)N)NC(=O)[C@H](Cc2ccc(O)cc2)NC(=O)[C@@H]2CCCN2C(=O)[C@@H](CCCCN)NC1=O` [TA14006, H-Arg-Arg-Nal-Cys-Tyr-Arg-Ala-DLys-Pro-Tyr-Arg-Cit-Cys-Arg-OH] (H-RR[2Nal]CYRA[dK]PYR[Cit]CR-OH; disulfide 4-13), for which the EC50 in the data set with HIV-1 (IIIB) strain came out at 47 nM.

`C[C@@H]1NC(=O)[C@H](Cc2ccc(O)cc2)NC(=O)[C@@H](NC(=O)[C@H](Cc2ccc3ccccc3c2)NC(=O)[C@H](CCCN=C(N)N)NC(=O)[C@@H](N)CCCN=C(N)N)CSSC[C@@H](C(=O)N[C@@H](CCCN=C(N)N)C(=O)O)NC(=O)[C@H](CCCNC(N)=O)NC(=O)[C@H](CCCN=C(N)N)NC(=O)[C@H](Cc2ccc(O)cc2)NC(=O)[C@@H]2CCCN2C(=O)[C@@H](CCCCN)NC(=O)[C@H](CCCCN)NC1=O` [TA14005, H-Arg-Arg-Nal-Cys-Tyr-Ala-Lys-DLys-Pro-Tyr-Arg-Cit-Cys-Arg-OH] (H-RR[2Nal]CYAK[dK]PYR[Cit]CR-OH; disulfide 4-13): the CC50 in data set [1] (human, MT-4 cells (virus-uninfected)) is > 40000 nM. Besides, the “SI: CC50 (Test I)/EC50” value in data set [2] is on record as >4500.

For `C[C@H]1NC(=O)[C@H](CCCCN)NC(=O)[C@H](CCCNC(=N)N)NC(=O)[C@H](Cc2ccc(O)cc2)NC(=O)[C@@H](NC(=O)[C@H](Cc2ccc3ccccc3c2)NC(=O)[C@H](CCCNC(=N)N)NC(=O)[C@@H](N)CCCNC(=N)N)CSSC[C@@H](C(=O)N[C@@H](CCCNC(=N)N)C(=O)O)NC(=O)[C@H](CCCNC(N)=O)NC(=O)[C@H](CCCNC(=N)N)NC(=O)[C@H](Cc2ccc(O)cc2)NC(=O)[C@@H]2CCCN2C1=O` [TA14007, H-Arg-Arg-Nal-Cys-Tyr-Arg-Lys-DAla-Pro-Tyr-Arg-Cit-Cys-Arg-OH] (H-RR[2Nal]CYRK[dA]PYR[Cit]CR-OH; disulfide 4-13), the EC50 in the data set on HIV-1 (IIIB) strain turned out to be 16 nM.

Regarding `C[C@@H]1NC(=O)[C@@H](CCCCN)NC(=O)[C@H](CCCCN)NC(=O)[C@H](CCCNC(=N)N)NC(=O)[C@H](Cc2ccc(O)cc2)NC(=O)[C@@H](NC(=O)[C@H](Cc2ccc3ccccc3c2)NC(=O)[C@H](CCCNC(=N)N)NC(=O)[C@@H](N)CCCNC(=N)N)CSSC[C@@H](C(=O)N[C@@H](CCCNC(=N)N)C(=O)O)NC(=O)[C@H](CCCNC(N)=O)NC(=O)[C@H](CCCNC(=N)N)NC(=O)[C@H](Cc2ccc(O)cc2)NC1=O` [TA14008, H-Arg-Arg-Nal-Cys-Tyr-Arg-Lys-DLys-Ala-Tyr-Arg-Cit-Cys-Arg-OH] (H-RR[2Nal]CYRK[dK]AYR[Cit]CR-OH; disulfide 4-13), the EC50 in the data set with HIV-1 (IIIB) strain stood at 17 nM.

As to `N=C(N)NCCC[C@H](NC(=O)[C@@H]1CSSC[C@H](NC(=O)[C@H](Cc2c[nH]c3ccccc23)NC(=O)[C@H](CCCNC(=N)N)NC(=O)[C@@H](N)CCCNC(=N)N)C(=O)N[C@@H](Cc2ccc(O)cc2)C(=O)N[C@@H](CCCNC(=N)N)C(=O)N[C@@H](CCCCN)C(=O)N[C@H](CCCCN)C(=O)N2CCC[C@H]2C(=O)N[C@@H](Cc2ccc(O)cc2)C(=O)N[C@@H](CCCNC(=N)N)C(=O)N[C@@H](CCCNC(N)=O)C(=O)N1)C(=O)O` [Compound T134, H-Arg-Arg-Trp-Cys-Tyr-Arg-Lys-DLys-Pro-Tyr-Arg-Cit-Cys-Arg-OH, reference compound] (H-RRWCYRK[dK]PYR[Cit]CR-OH; disulfide 4-13), the EC50 with HIV-1 (IIIB) strain turned out to be 8.3 nM.
